Like-named read-outs stand apart in the source and are kept apart here.
Experiments:
P. putida B2 [1] = experiment: Assays of growing cells of tod-lux reporter P. putida B2; format: cell-based, Pseudomonas putida; settings: for bioluminescent response: 90 minutes exposure
Protocol: (§1) In the batch and reactor studies, bioluminescence was measured using a photomultiplier, which converts the light to an electric current. The photomultiplier in the resting cell assays and the reactor system was connected to a computer and bioluminescence as namps current was recorded.
Assays of growing cells were conducted as described by Heitzer et al. (1992). An overnight culture from a frozen stock of P. putida B2 was prepared in a 250-ml Erlenmeyer flask containing 100 ml LB and 50 μg ml^−1 kanamycin. A subculture was prepared and cells were used in mid-log phase (OD546 of 0.45-0.48). A 2.5-ml aliquot was added to 2.5 ml mineral salts medium (MSM) containing 0-50 mg L^−1 toluene or 10-100 μl of JP4 jet fuel-saturated MSM. The concentration of toluene in water saturated with JP4 jet fuel is approximately 8 mg L^−1 (Smith et al., 1981). Bioluminescence was measured every 30 min.

P. putida B2 [2] = experiment: Resting cell assays of P. putida B2, single and multiple toluene exposures; format: cell-based, Pseudomonas putida; settings: 10 mg/L toluene; for Bioluminescent response rate, Multiple Exposure Vial: single vial with multiple additions; for Bioluminescent response rate, Single Exposure Vials: new vial previously unexposed
Protocol: as §1
Cells for resting cell assays were grown on MSM supplemented with 2.7 g L^−1 succinate. A culture of P. putida B2 was harvested at on OD546 of approximately 0.8. The cells were centrifuged at 15000×g for 10 min, and resuspended in MSM to OD546 of 0.6 four milliliters of culture were added to each of six 26-ml vials with Mininert valves (Dynatech, Chantilly, Va.) with stir bars. One vial was used for multiple toluene exposures, while the remainder were used for single exposures. The vials were magnetically stirred in a light-tight sampling cell. Toluene-saturated MSM and MSM alone were added to yield an OD546 of 0.47, and 10 mg L^−1 toluene was injected six times over a 130-h period of the multiple-exposure vial. At the same time points, a single-exposure vial was injected with 10 mg L^−1 toluene. The light response was recorded every 3 min with a photomultiplier connected to a data acquisition computer.

P. putida B2 [3] = experiment: Immobilized cell reactor (DVR) with alginate-encapsulated P. putida B2: bioluminescence and TCE co-metabolism; format: cell-based, Pseudomonas putida
Protocol: as §1
P. putida B2 was encapsulated in alginate beads for the immobilized cell reactor system. Cells were grown in 1 L LB to an OD546 of 1.2 and were centrifuged at 5500×g for 10 min, washed three times in 0.9% NaCl and suspended in 40 ml 0.9% NaCl. The cell suspension was added to 80 ml of an alginic acid solution (28 g L^−1 low viscosity alginate, 0.9% NaCl) (Webb, 1992). The cell-alginate suspension was placed in a 60-ml syringe, forced through a 25-gauge needle, and allowed to drop into a 0.5 M CaCl2 Solution. The alginate was cross-linked by the Ca^2+ ions, thus encapsulating the cells. The cells were subsequently placed in a fresh solution of 0.1 M CaCl2 and allowed to sit for 30 min prior to use.
A differential volume reactor (DVR) was used to simulate a section of an ideal plug flow reactor. Influent to the reactor was dispersed through a porous metal frit to provide a flat velocity profile to the bed. The reactor measured 5.0 cm i.d.×5.0 cm long. A complete description of this reactor can be found in Webb et al. (1991). In this investigation, a system was designed incorporating the DVR as illustrated in FIG. 17. The system was equipped with three Millipore (Bedford, Mass.) stainless steel substrate containers rated to 690 kPa. The feed from the substrate vessels to the reactor inlet was controlled by two Filson (Middleton, Wis.) 301 HPLC pumps. A flow rate of 0.4 ml min^−1 was maintained. The substrate vessels were pressurized with oxygen to provide the system with an electron acceptor. All medium vessels contained trace mineral medium (Lackey et al., 1993) with the addition of 3 mg L^−1 pyruvic acid and a 0.1 M solution of Tris-base (pH 7.0). phosphate buffers were not used since phosphate ions complex with Ca^2+ ions and disrupt with alginate crosslinking. In addition to this medium, two of the vessels contained either TCE or toluene. The inlet concentration of toluene was altered by using square-wave perturbations with 20-h cycles (10 h with toluene, 10 h without toluene) using an HPLC pump controlled by a timer. During feed portions of the cycle, 10 mg L^−1 toluene was introduced into the inlet of the reactor. The inlet TCE concentration was constant at 20 mg L^−1.
Analysis of TCE in the reactor effluent was performed online using a stripping column (12.5 cm length and 0.4 cm inner diameter) packed with 3-mm glass beads to provide adequate surface area for TCE separation. TCE was stripped with helium, the GC carrier gas. The stripping column outlet was attached to a gas chromatograph (GC, Hewlett Packard (Wilmington, Del.) (HP) 5890 Series II) with an electron capture detector by a heated sample line maintained at 75° C. Automatic injections (25 μl) were made by a computerized control process (HP Chem Station software). The GC was equipped with a cross-linked methyl silicone capillary column (length 30 n, i.d 0.2 mm, 0.33-μm film thickness) while the oven was operated isothermally at 60° C. Other operating parameters included an injection temperature of 150° C., detector temperature of 200° C. and a split ratio of 10:1. This system was equipped with a bypass line around the reactor in order to calibrate the stripping column.
Toluene samples were removed at 0.5-ml aliquots from the effluent sampling port (FIG. 17) and injected into 1.5 ml sample vials. Headspace analysis was performed using a Shimadzu (Columbia, Md.) GC-9A gas chromatograph equipped with a 2.44-m, 3.2-mm diameter Poropak N packed column and a flame ionization detector. The isothermal temperature of the oven was 210° C., and both the detector and injector temperatures were 220° C.

P. putida TVA8 = format: cell-based, Pseudomonas putida
[4] = Model parameters for naphthalene (diffusion, equilibrium constant); format: physicochemical
From the text: Biot numbers were on the order of 100. Effectiveness factor calculations using the best-fit first-order reaction rate constant indicate that the beads were limited by the reaction rate and not by internal mass transfer resistance. The good fit obtained using the analytical solution, wherein external and internal mass transfer was assumed negligible, also support the conclusion that mass transfer effects were minimal. The model predicts that the salicylate distribution reaches a steady state within an alginate bead (99% of final) in about 7 minutes. Even assuming that the diffusion coefficient was reduced by an order of magnitude in the alginate matrix, a steady state was reached within 15 min. […] Cell volume estimated at less than 1% probably had little effect on diffusion. The model also predicted that liquid mass transfer resistance would have little effect on reaching steady state. […] A positive 50% error in the measured adsorption coefficient would result in doubling the time required to reach steady state. […] Model parameters have been measured (liquid mass transfer coefficient, pellet void volume, and adsorption coefficients), reported, and estimated. Respective coefficients for naphthalene were […], 9.0×10^−8 cm^2 s^−1 and 8.4 cm^2 s mol^−1 for liquid diffusion, solid diffusion, and Langmuir equilibrium constants. Companion free cell studies are needed to further aid evaluation of free and immobilized kinetics and response.

[5] = Adsorption isotherms on calcium alginate; format: physicochemical
Protocol: Tracer concentrations were measured using a Waters ion-chromatography system with a series 510 HPLC pump, IC-PAK anion exchange column, and 431 conductance detector (Waters, Cam-bridge, MA) or monitored continuously using fluorescence.

P. fluorescens HK44 = format: cell-based, Pseudomonas fluorescens
From the text: A previously developed PBR system with on-line instrumentation (Webb, 1992; Webb et al., 1991) was used to measure bacterial degradative and bioluminescent activity under conditions mimicking those of the subsurface. The reactor design is detailed in FIG. 21. The PBR was temperature controlled and fitted with metal frits welded to the inlet and outlet to retain and distribute feed to immobilized cultures. An additional inter-cavity insert allowed the installation of filters (e.g., […] inorganic and polymeric) between the packed bed and outlet frit that filtered the effluent for automatic injection into the on-line high-performance liquid chromatography (HPLC) and that produced a uniform resistance to flow that improved the overall distribution to the reactor (Webb, 1992). […] HPLC pumps supplied media to each reactor from pressurized feed reservoirs. All nutrients, including oxygen, entered the reactor dissolved in the liquid phase. Naphthalene and salicylate were detected with an on-line HPLC using a Vydac TP20154 column (Sep/A/Ra/Tions Group, Hesperia, Calif.) with a FL-4 dual-monochromator fluorescent detector (Perkin-Elmer, Norwalk, Conn.). Respective excitation and emission wavelengths for salicylate detection were 290 and 360 nm. The reactor was fitted with an on-line light detector for monitoring bioluminescent activity (Dunbar, 1992) consisting of a glued fiber bundle (Ensign Bickford Optics, Simsbury, Conn.) placed approximately 2.5 cm from the entrance of the reactor. An Oriel Inc. (Stratford, Conn.) 7070 photomultiplier detection system using a Model 77348 photomultiplier tube (radiant sensitivity of […] near 500 nm) were employed.
Mineral salts media (pH 7.2) consisting of MgSO4 7H2O ([…]), NH4NO3 ([…]), trizma™ base ([…]), MgO (1.0×10^−3 g/l), CaCl2 (2.9×10^−4 g/l), FeCl3.6H2O (5.4×10^−4 g/l), ZnSO4.7H2O (1.4×10^−4 g/l), CuSO4 (2.5×10^−5 g/l), […] (6.2×10^−6 g/l), and Na2MoO4.H2O (4.9×10^−5 g/l) were supplied to the reactor with an appropriate carbon source for degradation and bioluminescence studies. Kinetic bacterial studies were phosphate limited and maintained aerobic by con-trolled pressurization of feeds and the reactor.
The HK44 was prepared for immobilization by adding freshly thawed inoculum (frozen at −70° C. until use) to 100 mL of YEPG media which contained glucose (1.0 g/l), polypeptone (2.0 g/l), yeast extract (0.2 g/l), NH4NO3 (0.2 g/l), and tetracycline (14 mg/l). The culture was shaken for 15 hours at 25° C. and then centrifuged at 8000 rpm for 10 minutes. The pellet was then washed with 0.9% NaCl solution three times before immobilization. The concentration of HK44 was enumerated by measuring optical density at 546 nm. The HK44 was immobilized by suspending bacteria in 0.9% NaCl solution and mixing with a low-viscosity alginate (28 g/L) and NaCl (9 g/L) solution in a ratio of 1:2 by volume. Beads were formed by controlled dropwise addition to 0.1 M CaCl2 solution by a syringe needle installed in an air jet controlled by a precision regulator (Porter Instrument Co., Hatfield, Pa.) and a piece of 0.003-in. (i.d.) tubing. Beads diameters were measured using gentle wet sieving. Alginate beads were dissolved in 50 mM sodium hexametaphosphate. […]

HK44 cells = settings: liquid assays; cited from earlier work

Q: What does the source list for Cc1ccccc1 [Toluene, toluene]?
A: bioluminescent response (in words) (P. putida B2 [1]; 0 and 0.01 mg/l toluene): not a significant bioluminescent response; bioluminescent response (P. putida B2 [1]; 0.1 mg/l toluene): 2.4 namp; bioluminescent response (P. putida B2 [1]; 10, 20 and 50 mg/l toluene): approximately 90 namp; maximum bioluminescent response (P. putida B2 [2]; same for single and multiple exposures): 573±127 namp; Bioluminescent response rate, Multiple Exposure Vial (P. putida B2 [2]; time point 1): 95 NAMP/HR; Bioluminescent response rate, Single Exposure Vials (P. putida B2 [2]; time point 2): 137 NAMP/HR; Bioluminescent response rate, Multiple Exposure Vial (P. putida B2 [2]; time point 2): 321 NAMP/HR; Bioluminescent response rate, Single Exposure Vials (P. putida B2 [2]; time point 3): 67 NAMP/HR; Bioluminescent response rate, Multiple Exposure Vial (P. putida B2 [2]; time point 3): 642 NAMP/HR; Bioluminescent response rate, Single Exposure Vials (P. putida B2 [2]; time point 4): 60 NAMP/HR; Bioluminescent response rate, Multiple Exposure Vial (P. putida B2 [2]; time point 4): 768 NAMP/HR; Bioluminescent response rate, Single Exposure Vials (P. putida B2 [2]; time point 5): 60 NAMP/HR; Bioluminescent response rate, Multiple Exposure Vial (P. putida B2 [2]; time point 5): 737 NAMP/HR; Bioluminescent response rate, Single Exposure Vials (P. putida B2 [2]; time point 6): 49 NAMP/HR; Bioluminescent response rate, Multiple Exposure Vial (P. putida B2 [2]; time point 6): 973 NAMP/HR; maximum light response (P. putida B2 [3]; 10 mg/L toluene square-wave feed, 20 mg/L TCE): 43.4±6.8 namp; rate of light response decrease (P. putida B2 [3]; after the toluene feed was stopped): 3.4±0.8 namp/hr; rate of light emission increase (P. putida B2 [3]; during toluene feed cycle, 10 mg/L toluene, 20 mg/L TCE): 16.3±1.2 namp/hr; effluent toluene concentration (P. putida B2 [3]; inlet toluene 10 mg/L): 5.8 ± 0.1 mg/L; toluene removal (P. putida B2 [3]; inlet toluene 10 mg/L): 50%; ratio toluene degraded to TCE degraded (P. putida B2 [3]; steady state in DVR): 1.7 μmol toluene degraded/μmol TCE degraded; light response (in words) (P. putida TVA8; approximately 50 mg/L (JP-4 approx. 2%), 2 h): significant light response; bioluminescence relative to background bioluminescence level (P. putida TVA8; at 50 μg toluene/L): 80 fold; Specific Bioluminescence (P. putida TVA8; exposure 2 hours, approximately 50 mg/L, normalized to final OD546, average ± SD of three replicates): 291 ± 6 namp/OD; Specific Bioluminescence (P. putida TVA8; toluene 50 mg/L, 2 h exposure): 290 namp/OD546

Q: What does the source list for c1ccc2ccccc2c1 [naphthalene]?
A: Langmuir equilibrium constant [4]: 8.4 cm^2 s mol^−1; liquid diffusion coefficient [4]: 9.0×10^6 cm^2 s^−1; solid diffusion coefficient [4]: 9.0×10^−8 cm^2 s^−1; adsorption on calcium alginate (in words) [5]: adsorbed linearly; adsorption isotherm on calcium alginate, dimensionless ratio ([5]; linear isotherm): 8.4; Bioluminescence ± σ (P. fluorescens HK44; experiment 5b, biomass […] 10^9 cells/mL, sodium salicylate 2.5 mg/L plus naphthalene 8.0, τ 15 min): 4.79 ± 3.18 × 10^−1 nA; steady-state light response to naphthalene relative to response to salicylate (P. fluorescens HK44; identical conditions, alginate-immobilized HK44): approximately two orders of magnitudes greater; linear luminescence response, lower concentration (HK44 cells): 0.72 µg/L; linear luminescence response, upper concentration (HK44 cells): 3.25 mg/L

Source: patent US6905834B1, “Bioluminescent bioreporter integrated circuit detection methods” (UT-Battelle, LLC, priority 1997, dated 2005)
